Test results taken from ChEMBL document CHEMBL1150842, “Two new fatty diterpenoids from Salvia miltiorrhiza” (J Nat Prod, 2001).

What was measured:
Format in all cases: functional, cell-based
Details in all cases: Oryctolagus cuniculus
[1] = Antiplatelet activity against washed rabbit platelet assessed as inhibition of arachidonic acid-induced platelet aggregation preincubated for 3 mins before arachidonic acid challenge
[2] = Antiplatelet activity against washed rabbit platelet assessed as inhibition of collagen-induced platelet aggregation preincubated for 3 mins before collagen challenge
[3] = Antiplatelet activity against washed rabbit platelet assessed as inhibition of thrombin-induced platelet aggregation preincubated for 3 mins before thrombin challenge

| IC50 [1] [µM] | IC50 [2] [µM] | IC50 [3] [µM] | Compound |
| --- | --- | --- | --- |
| 5.1 | 50.4 | > 100 | CCCCCCCC/C=C\CCCCCCCC(=O)OCC(C)C1=C(O)C(=O)c2c(ccc3c2CCCC3(C)C)C1=O (configuration not stated) |
| 25.5 | 60.5 | > 100 | CCCCCCCC/C=C\CCCCCCCC(=O)OCC(C)C1=C(O)C(=O)c2c(ccc3c(C)cccc23)C1=O (configuration not stated) [16-O-OLEOYL DANSHENXINKUN A] |
| 27 |  |  | CC(=O)Oc1ccccc1C(=O)O [ASPIRIN] |
